Consider two compounds from patent US9226495B2, “Disinfection aerosol, method of use and manufacture” (SABAN VENTURES PTY LIMITED, priority 2009, dated 2016).

Series [1] can be described thus: Hydrogen peroxide destruction in bulk solution in a tube, temperature rise as proxy. The format is physicochemical. Particulars: antagonist concentrations of below 1×10^−4 M; 0.02M sodium hydroxide; FIG. 3.
Description: Screening was initially conducted using bulk solutions combined in a tube, rather than as aerosols.
During destruction of hydrogen peroxide by Mn(II) or permanganate in tubes the temperature of the solution rather often reached boiling point. This should not happen when the biocide is sprayed as a mist due to absolutely different heat exchange conditions in bulk solution and in a thin layer of biocide. […] By lead time is meant the lag or induction period before the reaction velocity increases steeply.
For series [2] the following is noted: according OH&S requirements; of Mn; cited from earlier work.

On to `[K+].[O]=[Mn](=[O])(=[O])[O-]` [KMnO4], for which the “time to peak rate of reaction with 35% peroxide” value in series [1] is given as “about 10 mins”. As to `[Mn]` [Mn], in series [2], the permissible exposure limit was 5 mg/m^3.
